What was measured:
[1] = system: A549; assay: Antiproliferative activity against human A549 cells after 24 hrs by BrdU incorporation assay; format: functional, cell-based; conditions: A549, 24 h
[2] = system: WI-38; assay: Antiproliferative activity against human WI38 cells after 24 hrs by BrdU incorporation assay; format: cell-based; conditions: WI-38, 24 h
[3] = system: A549; assay: Induction of cell cycle arrest in human A549 cells assessed as accumulation at S phase at 100 uM after 24 hrs by FITC-labeled anti-BrdU antibody/7AAD staining based FACS calibur flow cytometric analysis (reference value: 20.9 %); format: functional
[4] = system: A549; assay: Induction of cell cycle arrest in human A549 cells assessed as accumulation at G2/M phase at 100 uM after 24 hrs by FITC-labeled anti-BrdU antibody/7AAD staining based FACS calibur flow cytometric analysis (reference value: 12.61 %); format: functional
[5] = system: A549; assay: Induction of cell cycle arrest in human A549 cells assessed as accumulation at G1 phase at 100 uM after 24 hrs by FITC-labeled anti-BrdU antibody/7AAD staining based FACS calibur flow cytometric analysis (reference value: 65.9 %); format: functional
[6] = system: A549; assay: Induction of cell cycle arrest in human A549 cells assessed as accumulation at sub G1 phase at 100 uM after 24 hrs by FITC-labeled anti-BrdU antibody/7AAD staining based FACS calibur flow cytometric analysis (reference value: 0.82 %); format: functional
[7] = system: A549; assay: Induction of cell cycle arrest in human A549 cells assessed as accumulation at G1 phase at 1 uM after 24 hrs by FITC-labeled anti-BrdU antibody/7AAD staining based FACS calibur flow cytometric analysis (reference value: 65.9 %); format: functional
[8] = system: A549; assay: Induction of cell cycle arrest in human A549 cells assessed as accumulation at sub G1 phase at 1 uM after 24 hrs by FITC-labeled anti-BrdU antibody/7AAD staining based FACS calibur flow cytometric analysis (reference value: 0.82 %); format: functional
[9] = system: A549; assay: Induction of cell cycle arrest in human A549 cells assessed as accumulation at G2/M phase at 1 uM after 24 hrs by FITC-labeled anti-BrdU antibody/7AAD staining based FACS calibur flow cytometric analysis (reference value: 12.61 %); format: functional
[10] = system: A549; assay: Induction of cell cycle arrest in human A549 cells assessed as accumulation at S phase at 1 uM after 24 hrs by FITC-labeled anti-BrdU antibody/7AAD staining based FACS calibur flow cytometric analysis (reference value: 20.9 %); format: functional

| SMILES | IC50 [1] [µM] | IC50 [2] [µM] | further results |
| --- | --- | --- | --- |
| O=C(CN1CCN(c2cc3c(cc2F)c(=O)c(C(=O)O)cn3C2CC2)CC1)NC1CCCCC1 | 20.7 | > 100 |  |
| Cc1ccc(NC(=O)CN2CCN(c3cc4c(cc3F)c(=O)c(C(=O)O)cn4C3CC3)CC2)cc1 | 23.6 | > 100 |  |
| O=C(O)c1cn(C2CC2)c2cc(N3CCNCC3)c(F)cc2c1=O [CIPROFLOXACIN] | > 100 | > 100 | Activity [3]: 3.8%; Activity [4]: 16.8%; Activity [5]: 61%; Activity [6]: 9.5% |
| COc1cccc2c1C(=O)c1c(O)c3c(c(O)c1C2=O)C[C@@](O)(C(=O)CO)C[C@@H]3O[C@H]1C[C@H](N)[C@H](O)[C@H](C)O1 [DOXORUBICIN] |  | 12.3 | Activity [7]: 56.5%; Activity [8]: 6.75%; Activity [9]: 22.5%; Activity [10]: 15.4% |
| O=C(CN1CCN(c2cc3c(cc2F)c(=O)c(C(=O)O)cn3C2CC2)CC1)Nc1ccccc1 | > 100 | > 100 |  |
| COc1ccccc1NC(=O)CN1CCN(c2cc3c(cc2F)c(=O)c(C(=O)O)cn3C2CC2)CC1 | > 100 | > 100 |  |

— ChEMBL document CHEMBL4428075, “New antiproliferative 7-(4-(N-substituted carbamoylmethyl)piperazin-1-yl) derivatives of ciprofloxacin induce cell cycle arrest at G2/M phase” (Bioorg Med Chem, 2016)
